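Five compound concentrations were applied to cells in 96-well plates for 48 hours; endpoints were derived by simple linear interpolation of the resulting dose-response curve. GI50 is the concentration that inhibits growth by half. TGI: total growth inhibition.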
Assays:
Test in all cases: inhibition of tumour cell growth, NCI panel, 48 h
NCI/ADR-RES ovarian = system: NCI/ADR-RES ovarian
CAKI-1 renal = system: CAKI-1 renal
UACC-62 melanoma = system: UACC-62 melanoma
OVCAR-4 ovarian = system: OVCAR-4 ovarian
OVCAR-3 ovarian = system: OVCAR-3 ovarian
SK-MEL-28 melanoma = system: SK-MEL-28 melanoma
HS 578T breast = system: HS 578T breast
LOX IMVI melanoma = system: LOX IMVI melanoma
HCT-15 colon = system: HCT-15 colon
A549 NSCLC = system: A549 NSCLC
SF-268 CNS = system: SF-268 CNS
IGROV1 ovarian = system: IGROV1 ovarian
RXF 393 renal = system: RXF 393 renal
UO-31 renal = system: UO-31 renal
786-0 renal = system: 786-0 renal
HT29 colon = system: HT29 colon
TK-10 renal = system: TK-10 renal
SNB-19 CNS = system: SNB-19 CNS
EKVX NSCLC = system: EKVX NSCLC
HL-60(TB) leukemia = system: HL-60(TB) leukemia
BT-549 breast = system: BT-549 breast
HOP-92 NSCLC = system: HOP-92 NSCLC
T-47D breast = system: T-47D breast
OVCAR-8 ovarian = system: OVCAR-8 ovarian
PC-3 prostate = system: PC-3 prostate
RPMI-8226 leukemia = system: RPMI-8226 leukemia
SN12C renal = system: SN12C renal
SF-539 CNS = system: SF-539 CNS
SK-MEL-2 melanoma = system: SK-MEL-2 melanoma
SNB-75 CNS = system: SNB-75 CNS
DU-145 prostate = system: DU-145 prostate
NCI-H522 lung = system: NCI-H522 lung
OVCAR-5 ovarian = system: OVCAR-5 ovarian
ACHN renal = system: ACHN renal
SF-295 CNS = system: SF-295 CNS
SR leukemia = system: SR leukemia
U251 CNS = system: U251 CNS
COLO 205 colon = system: COLO 205 colon
NCI-H226 lung = system: NCI-H226 lung
SK-MEL-5 melanoma = system: SK-MEL-5 melanoma
CCRF-CEM leukemia = system: CCRF-CEM leukemia
HCC-2998 colon = system: HCC-2998 colon
A498 renal = system: A498 renal
NCI-H460 lung = system: NCI-H460 lung
SW-620 colon = system: SW-620 colon
HOP-62 NSCLC = system: HOP-62 NSCLC
MDA-MB-435 = system: MDA-MB-435
M14 melanoma = system: M14 melanoma
HCT-116 colon = system: HCT-116 colon
NCI-H23 lung = system: NCI-H23 lung
UACC-257 melanoma = system: UACC-257 melanoma
K-562 leukemia = system: K-562 leukemia
KM12 colon = system: KM12 colon
MDA-MB-231 breast = system: MDA-MB-231 breast
MOLT-4 leukemia = system: MOLT-4 leukemia
SK-OV-3 ovarian = system: SK-OV-3 ovarian

COc1cc(/C=C2\CN(S(=O)(=O)c3ccccc3)C/C(=C\c3cc(CN4CCCC4)c(O)c(OC)c3)C2=O)cc(CN2CCCC2)c1O
GI50 (NCI/ADR-RES ovarian): > 100 µM | TGI (NCI/ADR-RES ovarian): > 100 µM | GI50 (CAKI-1 renal): 1.83 µM | TGI (CAKI-1 renal): 5.21 µM | GI50 (UACC-62 melanoma): 1.61 µM | TGI (UACC-62 melanoma): 3.24 µM | GI50 (OVCAR-4 ovarian): 1.27 µM | TGI (OVCAR-4 ovarian): 3.09 µM | GI50 (OVCAR-3 ovarian): 1.02 µM | TGI (OVCAR-3 ovarian): 3.05 µM | GI50 (SK-MEL-28 melanoma): 1.88 µM | TGI (SK-MEL-28 melanoma): 3.56 µM | GI50 (HS 578T breast): 2.52 µM | TGI (HS 578T breast): 7.22 µM | GI50 (LOX IMVI melanoma): 0.332 µM | TGI (LOX IMVI melanoma): 1.14 µM | GI50 (HCT-15 colon): 2.3 µM | TGI (HCT-15 colon): 7.6 µM | GI50 (A549 NSCLC): 3.61 µM | TGI (A549 NSCLC): > 100 µM | GI50 (SF-268 CNS): 1.45 µM | TGI (SF-268 CNS): 4.06 µM | GI50 (IGROV1 ovarian): 1.54 µM | TGI (IGROV1 ovarian): 3.29 µM | GI50 (RXF 393 renal): 1.27 µM | TGI (RXF 393 renal): 2.8 µM | GI50 (UO-31 renal): 1.92 µM | TGI (UO-31 renal): 5.31 µM | GI50 (786-0 renal): 1.86 µM | TGI (786-0 renal): 4.32 µM | GI50 (HT29 colon): 0.252 µM | TGI (HT29 colon): 1.65 µM | GI50 (TK-10 renal): 3.18 µM | TGI (TK-10 renal): 7.73 µM | GI50 (SNB-19 CNS): 1.49 µM | TGI (SNB-19 CNS): 3.08 µM | GI50 (EKVX NSCLC): 1.14 µM | TGI (EKVX NSCLC): 3.53 µM | GI50 (HL-60(TB) leukemia): 0.513 µM | TGI (HL-60(TB) leukemia): 2.73 µM | GI50 (BT-549 breast): 1.99 µM | TGI (BT-549 breast): 5.14 µM | GI50 (HOP-92 NSCLC): 1.51 µM | TGI (HOP-92 NSCLC): 4.69 µM | GI50 (T-47D breast): 3.76 µM | TGI (T-47D breast): > 100 µM | GI50 (OVCAR-8 ovarian): 1.31 µM | TGI (OVCAR-8 ovarian): > 100 µM | GI50 (PC-3 prostate): 1.41 µM | TGI (PC-3 prostate): 3.91 µM | GI50 (RPMI-8226 leukemia): 1.55 µM | TGI (RPMI-8226 leukemia): 5.03 µM | GI50 (SN12C renal): 1.08 µM | TGI (SN12C renal): 3.22 µM | GI50 (SF-539 CNS): 1.64 µM | TGI (SF-539 CNS): 3.31 µM | GI50 (SK-MEL-2 melanoma): 2.03 µM | TGI (SK-MEL-2 melanoma): 5.02 µM | GI50 (SNB-75 CNS): 1.27 µM | TGI (SNB-75 CNS): 2.71 µM | GI50 (DU-145 prostate): 0.542 µM | TGI (DU-145 prostate): 1.91 µM | GI50 (NCI-H522 lung): 0.318 µM | TGI (NCI-H522 lung): 2.11 µM | GI50 (OVCAR-5 ovarian): 1.91 µM | TGI (OVCAR-5 ovarian): 3.86 µM | GI50 (ACHN renal): 1.99 µM | TGI (ACHN renal): 4.94 µM | GI50 (SF-295 CNS): 1.55 µM | TGI (SF-295 CNS): 3.64 µM | GI50 (SR leukemia): 0.458 µM | TGI (SR leukemia): > 100 µM

ClCc1cccc(Cn2cnc3ncnc(Cl)c32)c1
GI50 (U251 CNS): 1.97 µM | TGI (U251 CNS): 3.95 µM | GI50 (COLO 205 colon): 2.61 µM | TGI (COLO 205 colon): > 100 µM | GI50 (NCI/ADR-RES ovarian): 2.78 µM | TGI (NCI/ADR-RES ovarian): 9.75 µM | GI50 (NCI-H226 lung): 3.19 µM | TGI (NCI-H226 lung): 8.67 µM | GI50 (CAKI-1 renal): 2.12 µM | TGI (CAKI-1 renal): 4.04 µM | GI50 (UACC-62 melanoma): 2.16 µM | TGI (UACC-62 melanoma): 5.39 µM | GI50 (OVCAR-4 ovarian): 4.17 µM | TGI (OVCAR-4 ovarian): 16 µM | GI50 (SK-MEL-5 melanoma): 4.65 µM | TGI (SK-MEL-5 melanoma): 18.2 µM | GI50 (CCRF-CEM leukemia): 6.91 µM | TGI (CCRF-CEM leukemia): 22.2 µM | GI50 (OVCAR-3 ovarian): 1.77 µM | TGI (OVCAR-3 ovarian): 3.23 µM | GI50 (SK-MEL-28 melanoma): 1.81 µM | TGI (SK-MEL-28 melanoma): 3.52 µM | GI50 (HS 578T breast): 18.2 µM | TGI (HS 578T breast): 42.3 µM | GI50 (LOX IMVI melanoma): 3.11 µM | TGI (LOX IMVI melanoma): 14 µM | GI50 (HCT-15 colon): 1.96 µM | TGI (HCT-15 colon): 4.34 µM | GI50 (HCC-2998 colon): 1.68 µM | TGI (HCC-2998 colon): 3.25 µM | GI50 (A549 NSCLC): 17.2 µM | TGI (A549 NSCLC): 39.6 µM | GI50 (A498 renal): 18.4 µM | TGI (A498 renal): 35.9 µM | GI50 (SF-268 CNS): 1.66 µM | TGI (SF-268 CNS): 3.5 µM | GI50 (IGROV1 ovarian): 3.38 µM | TGI (IGROV1 ovarian): 13.8 µM | GI50 (RXF 393 renal): 2.02 µM | TGI (RXF 393 renal): 17.4 µM | GI50 (UO-31 renal): 1.54 µM | TGI (UO-31 renal): 3.11 µM | GI50 (NCI-H460 lung): 2.09 µM | TGI (NCI-H460 lung): 4.45 µM | GI50 (786-0 renal): 2.06 µM | TGI (786-0 renal): 4.09 µM | GI50 (SW-620 colon): 15.2 µM | TGI (SW-620 colon): 32.2 µM | GI50 (HT29 colon): 2.89 µM | TGI (HT29 colon): > 100 µM | GI50 (HOP-62 NSCLC): 2.17 µM | TGI (HOP-62 NSCLC): 3.99 µM | GI50 (MDA-MB-435): 3.46 µM | TGI (MDA-MB-435): 12.9 µM | GI50 (TK-10 renal): 1.76 µM | TGI (TK-10 renal): 3.3 µM | GI50 (EKVX NSCLC): 13.7 µM | TGI (EKVX NSCLC): 29.7 µM | GI50 (M14 melanoma): 3.05 µM | TGI (M14 melanoma): 14.6 µM | GI50 (BT-549 breast): 13.1 µM | TGI (BT-549 breast): 28.6 µM | GI50 (T-47D breast): 0.212 µM | TGI (T-47D breast): 0.497 µM | GI50 (OVCAR-8 ovarian): 3.1 µM | TGI (OVCAR-8 ovarian): 14.9 µM | GI50 (PC-3 prostate): 2.13 µM | TGI (PC-3 prostate): 5.32 µM | GI50 (HCT-116 colon): 1.78 µM | TGI (HCT-116 colon): 5.21 µM | GI50 (RPMI-8226 leukemia): 13.7 µM | TGI (RPMI-8226 leukemia): 34.9 µM | GI50 (SN12C renal): 7.02 µM | TGI (SN12C renal): 20.2 µM | GI50 (SF-539 CNS): 19.9 µM | TGI (SF-539 CNS): 36 µM | GI50 (NCI-H23 lung): 1.23 µM | TGI (NCI-H23 lung): 3.38 µM | GI50 (UACC-257 melanoma): 1.96 µM | TGI (UACC-257 melanoma): 5.52 µM | GI50 (SK-MEL-2 melanoma): 5.76 µM | TGI (SK-MEL-2 melanoma): 22.8 µM | GI50 (SNB-75 CNS): 1.84 µM | TGI (SNB-75 CNS): 3.53 µM | GI50 (K-562 leukemia): 16.6 µM | TGI (K-562 leukemia): 48.1 µM | GI50 (KM12 colon): 1.85 µM | TGI (KM12 colon): 3.32 µM | GI50 (MDA-MB-231 breast): 1.72 µM | TGI (MDA-MB-231 breast): 3.4 µM | GI50 (DU-145 prostate): 15.2 µM | TGI (DU-145 prostate): 31 µM | GI50 (NCI-H522 lung): 6.19 µM | TGI (NCI-H522 lung): 23.9 µM | GI50 (MOLT-4 leukemia): 10.6 µM | TGI (MOLT-4 leukemia): 29.4 µM | GI50 (OVCAR-5 ovarian): 6.74 µM | TGI (OVCAR-5 ovarian): 19.8 µM | GI50 (ACHN renal): 1.88 µM | TGI (ACHN renal): 3.53 µM | GI50 (SK-OV-3 ovarian): 10.8 µM | TGI (SK-OV-3 ovarian): 25.5 µM | GI50 (SF-295 CNS): 6.35 µM | TGI (SF-295 CNS): 19 µM
